ChEMBL document CHEMBL1201862, “PubChem BioAssay data set” (2004)
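Growth conditions: 96-well plates. Treatment: test compound, 48 hours, 5 concentrations. Analysis: linear interpolation between bracketing concentrations; unreached endpoints set to highest concentration. GI50 marks 50% less growth.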 The source made the active and inactive calls. No stated cut-off is given here; in the data, active = GI50 up to about 1.1 µM and inactive = higher.

What was measured:
Test in all cases: inhibition of tumour cell growth, NCI panel, 48 h
LOX IMVI = system: LOX IMVI
IGROV-1 = system: IGROV-1
LXFL 529 = system: LXFL 529
Malme-3M = system: Malme-3M
SNB-78 = system: SNB-78
MDA-MB-435 = system: MDA-MB-435
A498 = system: A498
OVCAR-8 = system: OVCAR-8
CAKI-1 = system: CAKI-1
A549 = system: A549
SF-539 = system: SF-539
UACC-62 = system: UACC-62
DLD-1 = system: DLD-1
SN12C = system: SN12C
RXF 393 = system: RXF 393
UO-31 = system: UO-31
Hs-578T = system: Hs-578T
ACHN = system: ACHN
CCRF-CEM = system: CCRF-CEM
HT-29 = system: HT-29

SMILES	GI50 (LOX IMVI)	GI50 (IGROV-1)	GI50 (LXFL 529)	GI50 (Malme-3M)	GI50 (SNB-78)	GI50 (MDA-MB-435)	GI50 (A498)	GI50 (OVCAR-8)	GI50 (CAKI-1)	GI50 (A549)	GI50 (SF-539)	GI50 (UACC-62)	GI50 (DLD-1)	GI50 (SN12C)	GI50 (RXF 393)	GI50 (UO-31)	GI50 (Hs-578T)	GI50 (ACHN)	GI50 (CCRF-CEM)	GI50 (HT-29)
CCCC/C=C1/CCC(CN(C)C)C1=O (stereo not drawn)	1390 nM (inactive)	3.98 µM (inactive)	625 nM (active)	1980 nM (inactive)	2.3 µM (inactive)	11 µM (inactive)	8.77 µM (inactive)	1830 nM (inactive)	745 nM (active)	6.58 µM (inactive)	2.48 µM (inactive)	2.09 µM (inactive)	863 nM (active)	1.87 µM (inactive)	1.77 µM (inactive)	2300 nM (inactive)	3.18 µM (inactive)	2.05 µM (inactive)	–	–
O=S1(=O)CCC2=CC(C(F)(F)F)=CC(C(F)(F)F)=CN21	348 nM (active)	1.84 µM (inactive)	435 nM (active)	733 nM (active)	1.85 µM (inactive)	1.82 µM (inactive)	2.08 µM (inactive)	308 nM (active)	560 nM (active)	2.96 µM (inactive)	1.42 µM (inactive)	1.64 µM (inactive)	339 nM (active)	1.55 µM (inactive)	1.47 µM (inactive)	805 nM (active)	3.1 µM (inactive)	0.415 µM (active)	73.8 nM (active)	1.53 µM (inactive)
CC[C@@]1(O)C(=O)OCc2c1cc1n(c2=O)Cc2cc3cc(O)ccc3nc2-1 [HYDROXYCAMPTOTHECIN]	33.7 nM (active)	0.476 µM (active)	150 nM (active)	49.8 nM (active)	0.248 µM (active)	0.0453 µM (active)	–	14.2 nM (active)	9.71 nM (active)	0.0506 µM (active)	0.00826 µM (active)	< 0.0075 µM (active)	1200 nM (inactive)	0.0128 µM (active)	0.0236 µM (active)	–	1.04 µM (active)	< 0.0116 µM (active)	< 7.5 nM (active)	–
CC1=CC2CC(C)=C(CC[C@]3(C)CC[C@H]([C@@H](C)C(=O)O)OO3)C(C)(C)C2CC1 (stereo partly drawn)	79.2 nM (active)	0.212 µM (active)	193 nM (active)	771 nM (active)	1.51 µM (inactive)	–	1.75 µM (inactive)	603 nM (active)	1170 nM (inactive)	0.45 µM (active)	1.26 µM (inactive)	1.49 µM (inactive)	201 nM (active)	0.391 µM (active)	0.372 µM (active)	984 nM (active)	–	1.3 µM (inactive)	182 nM (active)	0.182 µM (active)
